Data from US4581453A, “Guanidinothiazole derivatives containing alkylene bridges, and their use for influencing lipid metabolism” (Bayer Aktiengesellschaft, priority 1982, dated 1986).
Converted amounts (≈) assume the structure as drawn. Structures can show the parent of a compound that is named as a salt.

Experiments:
Aspergillus fumigatus = test: Antimycetic in vitro activity, series dilution test; format: cell-based; conditions: Sabourands' milieu d'epreuve, 96 hours, 20° C.; for MIC: read-out: Minimum inhibitory concentration
Procedure: (§1) The in vitro tests were carried out in a series dilution test using germ inocula of on average 5×10^4 germs/ml of substrate. The nutrient medium used was
(§2) (a) Sabourands' milieu d'epreuve for dermatophytes and moulds; and
(§3) (b) meat extract/dextrose broth for yeasts.
(§4) The incubation temperature was 20° C. and the incubation time was 24 to 96 hours for yeasts and 96 hours for dermatophytes and moulds.

Candida albicans = test: as above; format: cell-based; conditions: meat extract/dextrose broth, 24 to 96 hours, 20° C.; for MIC: read-out: Minimum inhibitory concentration
Procedure: as §1, §2, §3, §4

Microsporum canis = test: as above; format: cell-based; conditions: Sabourands' milieu d'epreuve, 96 hours, 20° C.; for MIC: read-out: Minimum inhibitory concentration
Procedure: as §1, §2, §3, §4

Torulopsis glabrata = test: as above; format: cell-based; conditions: meat extract/dextrose broth, 24 to 96 hours, 20° C.; for MIC: Nakaseomyces glabratus, read-out: Minimum inhibitory concentration
Procedure: as §1, §2, §3, §4

[1] = tested on: Trichophyton mentagrophytes; test: as above; format: cell-based; conditions: Sabourands' milieu d'epreuve, 96 hours, 20° C.; for MIC: read-out: Minimum inhibitory concentration
Procedure: as §1, §2, §3, §4

[2] = tested on: proliferation of the intima (arteria carotis comm.); conditions: rat; heparin following parenteral administration; cited from earlier work
[3] = tested on: platelet aggregation in rat PRP; test: Platelet aggregation-inhibiting action (PAH) ex vivo, thromboatherosclerosis experiment; format: in vivo; conditions: po, 1.5 h, read-out: PAH ex vivo: Activity, ED50 (dose/concentration range)
Procedure: The change in optical density of the sample of PRP was recorded over a period of 6 minutes and was determined via the reading after 6 minutes. The percentage inhibition is calculated from the corresponding readings. Moreover, the platelet aggregation was also determined in the context of the thromboatherosclerosis experiment. In carrying out these experiments, the active substance was administered to the animals orally in a Tylose suspension over a period of 10 days. On the 10th day, the animals were exsanguinated 90 minutes after the oral administration of the substance, and the PRP was isolated by means of centrifugation. After the PRP has been isolated, in vitro measurement of the aggregation inhibition starts, analogously to the process which has been described for the in vitro experiments; but without pre-incubation of the samples. 3 parts of rat PRP were also diluted with one part of physiological saline solution.
Atherosclerotic plaques are induced in rats by combination of two noxae (risk factors), that is to say vascular lesion and hyperlipaemia. By supercooling of the arteria carotis comm. (2 minutes, -10° C.), partial or complete endothelial scaling occurs in a locally restricted area. Proliferation of the intima occurs within 10 days, which is a relatively short period for such experiments, and largely corresponds to the early stages of atherosclerotic plaques in humans. The proliferation zones are removed and weighed. The moist weight in the supercooled segment of 1 cm is about 200-300 μg. The animals are additionally given a high-fat diet having the following composition: […]

[4] = tested on: proliferation of the intima (arteria carotis comm.); test: Anti-atherosclerotic action, thromboatherosclerosis model; format: in vivo; conditions: po; rat, per orally; read-out: anti-atherosclerotic: Activity, ED50 (dose/concentration range)
Procedure: Because of some fluid transitions between atherosclerosis and thrombosis, we have called the method used "thromboatherosclerosis model".
Folia angiologica 28, 85 (1980).
Atherosclerotic plaques are induced in rats by combination of two noxae (risk factors), that is to say vascular lesion and hyperlipaemia. By supercooling of the arteria carotis comm. (2 minutes, -10° C.), partial or complete endothelial scaling occurs in a locally restricted area. Proliferation of the intima occurs within 10 days, which is a relatively short period for such experiments, and largely corresponds to the early stages of atherosclerotic plaques in humans. The proliferation zones are removed and weighed. The moist weight in the supercooled segment of 1 cm is about 200-300 μg. The animals are additionally given a high-fat diet having the following composition:
52% of normal feed (Altromin®).
The lipid deposits are stained with the fat-soluble dyestuff Sudan IV and can be determined as an additional parameter.

Cyclooxygenase = biological target: T1, Cyclooxygenase (Homo sapiens, UniProt P23219); test: Arachidonic acid metabolism in platelets: cyclooxygenase inhibition; format: cell-based; conditions: 3H-arachidonic acid, read-out: Cyclooxygenase inhibition: Activity, ED50 (dose/concentration range) (converted)
T1 construct: endogenous in cells; host or cells: human platelets
T1 sequence (P23219 24-599): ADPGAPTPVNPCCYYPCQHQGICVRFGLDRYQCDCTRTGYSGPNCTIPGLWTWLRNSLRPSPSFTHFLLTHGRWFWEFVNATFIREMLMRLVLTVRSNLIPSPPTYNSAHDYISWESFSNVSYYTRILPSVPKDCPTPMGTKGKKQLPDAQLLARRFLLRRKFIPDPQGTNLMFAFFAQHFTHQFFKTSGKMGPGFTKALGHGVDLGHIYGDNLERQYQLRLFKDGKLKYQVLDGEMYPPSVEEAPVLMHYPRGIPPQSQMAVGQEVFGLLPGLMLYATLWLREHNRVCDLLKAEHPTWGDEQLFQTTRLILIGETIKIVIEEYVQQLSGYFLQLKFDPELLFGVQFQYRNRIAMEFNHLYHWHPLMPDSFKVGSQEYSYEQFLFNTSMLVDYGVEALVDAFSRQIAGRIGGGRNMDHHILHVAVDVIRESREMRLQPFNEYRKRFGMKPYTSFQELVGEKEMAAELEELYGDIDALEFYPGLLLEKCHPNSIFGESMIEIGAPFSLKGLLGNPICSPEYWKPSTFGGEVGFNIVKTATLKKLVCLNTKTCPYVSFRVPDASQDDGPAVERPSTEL
Description: In human platelets, ^3 H-arachidonic acid is converted into the products of the cyclooxygenase/thromboxane synthetase path, in particular thromboxane A2, and those of the lipoxygenase path, HETE. Separation of the resulting products by thin layer chromatography gives a characteristic pattern. Inhibitors of the individual enzymatic reactions modify this pattern in a typical manner (Bailey, J. M. et al., Prostaglandins 13, 479-492 (1977)). The action of the compounds according to the invention on individual reactions in arachidonic acid metabolism are shown in Table 2.

liver cholesterol = test: Cholesterol loading test; format: in vivo, Wistar rats; conditions: rat, 24 hours
Procedure: Cholesterol loading tests were carried out on conscious male or female Wistar rats weighing between 130-230 g.
Cholesterol and the substance to be tested were simultaneously administered orally in 0.75% strength tragacanth suspension. After 24 hours, the animals were sacrificed and the cholesterol content of the liver was determined. Cholesterol was determined by the Liebermann-Burchard method using the test combination of Boehringer Mannheim. Control animals received a corresponding volume of cholesterol/tragacanth suspension without the test substance. To monitor the rise in cholesterol as a result of cholesterol loading, tragacanth suspension containing no cholesterol was administered orally to another control group.

## c1ccc2c(-c3csc(N=C4NCCCN4)n3)cccc2c1 [Example 24]
Aspergillus fumigatus
  MIC: < 1 µg/mL
Candida albicans
  MIC: 2 µg/mL (≈ 6.48 µM)
Microsporum canis
  MIC: < 1 µg/mL
Torulopsis glabrata
  MIC: 8 µg/mL (≈ 25.9 µM)
[1]
  MIC: < 1 µg/mL

## O=C(O)c1cccnc1 [nicotinic acid]
[2]
  effectiveness in thromboatherosclerosis model (in words), prior agents: ineffective

## c1ccc(-c2csc(N=C3NCCCN3)n2)cc1 [Example 22]
Aspergillus fumigatus
  MIC: < 1 µg/mL
Candida albicans
  MIC: 4 µg/mL (≈ 15.5 µM)
Microsporum canis
  MIC: < 1 µg/mL
Torulopsis glabrata
  MIC: 32 µg/mL (≈ 124 µM)
[1]
  MIC: < 1 µg/mL

## CN1CCCNC1=Nc1nc(-c2ccccc2)cs1 [Example 49]
[3]
  ED50: 100 mg/kg
[4]
  ED50: 100 mg/kg
Cyclooxygenase
  IC50: 36.7 µM

## CC(=O)N1CCN(c2ccc(OCC3COC(Cn4ccnc4)(c4ccc(Cl)cc4Cl)O3)cc2)CC1 (centres unmarked) [Ketoconazol, ketoconazol, reference compound]
Aspergillus fumigatus
  MIC: 16 µg/mL (≈ 30.1 µM)
Candida albicans
  MIC: < 1 µg/mL
Microsporum canis
  MIC: 4 µg/mL (≈ 7.53 µM)
Torulopsis glabrata
  MIC: 1 µg/mL (≈ 1.88 µM)
[1]
  MIC: < 1 µg/mL

## Clc1ccc(-c2csc(N=C3NCCCN3)n2)c(Cl)c1 [Example 27]
Aspergillus fumigatus
  MIC: 8 µg/mL (≈ 24.4 µM)
Candida albicans
  MIC: < 1 µg/mL
Microsporum canis
  MIC: < 1 µg/mL
Torulopsis glabrata
  MIC: 16 µg/mL (≈ 48.9 µM)
[1]
  MIC: < 1 µg/mL

## Cc1cc(Cl)ccc1-c1csc(N=C2NCCCN2)n1 [Example 33, 2-(N-(4'-(4"-Chloro-2"-methylphenyl)-thiazol-2'-yl)imino)-hexahydropyrimidine hydrochloride]
Aspergillus fumigatus
  MIC: 2 µg/mL
Candida albicans
  MIC: 2 µg/mL
Microsporum canis
  MIC: 2 µg/mL
Torulopsis glabrata
  MIC: 16 µg/mL
[1]
  MIC: 2 µg/mL

## Cc1nc(N=C2NCCCN2)sc1C(=O)Nc1ccc(Cl)cc1 [Example 17]
[3]
  ED50: 100 mg/kg
Liver cholesterol; 100 mg/kg per orally
  Reduction in the increase in liver cholesterol in percent in comparison with the control, following oral cholesterol loading: 56.1%

## c1cc2c(cc1-c1csc(N=C3NCCCN3)n1)CCCC2 [Example 25]
[3]
  ED50: 100 mg/kg
Liver cholesterol; 10 mg/kg per orally
  Reduction in the increase in liver cholesterol in percent in comparison with the control, following oral cholesterol loading: 65.3%
Liver cholesterol; 30 mg/kg per orally
  Reduction in the increase in liver cholesterol in percent in comparison with the control, following oral cholesterol loading: 78.1%

## neomycin
[2]
  effectiveness in thromboatherosclerosis model (in words), prior agents: ineffective

## Clc1ccc(C2(Cn3ccnc3)OCC(COc3ccc(-c4ccccc4)cc3)O2)c(Cl)c1 (centres unmarked) [Doconazol, doconazol, reference compound]
Aspergillus fumigatus
  Minimum inhibitory concentration: 4 µg/mL (≈ 8.31 µM)
Candida albicans
  Minimum inhibitory concentration: < 1 µg/mL
Microsporum canis
  Minimum inhibitory concentration: 8 µg/mL (≈ 16.6 µM)
Torulopsis glabrata
  Minimum inhibitory concentration: < 1 µg/mL
[1]
  Minimum inhibitory concentration: < 1 µg/mL

## heparin
[2]
  effectiveness in thromboatherosclerosis model (in words), prior agents: effective
